Results: paper PMC8689225, “Cardiac ryanodine receptor N-terminal region biosensors identify novel inhibitors via FRET-based high-throughput screening” (The Journal of Biological Chemistry, 2021)
pEC50: −log10 of the molar value.

How the values were obtained:
RyR2 = target: T1, RyR2 (Sus scrofa, UniProt A0A5G2R1W3); experiment: [3H]ryanodine binding to cardiac SR (CSR) vesicles; type: biochemical, pig
T1 construct: from tissue; host or cells: porcine cardiac left ventricle, crude SR vesicles
Procedure: (§1) Crude sarcoplasmic reticulum membrane vesicles were isolated from porcine longissimus dorsi muscle and porcine cardiac left ventricle tissue by differential centrifugation of homogenized tissue, as established previously ([65]). Skeletal heavy SR (HSR) vesicles, which are enriched with RyR1, were isolated by fractionation of crude skeletal SR vesicles using a discontinuous sucrose gradient, in accordance with our published work ([65]). All vesicles were flash-frozen and stored at −80 °C.
(§2) In 96-well plates, skeletal SR membranes (HSR, 1 mg/ml) and cardiac SR membranes (CSR, 3 mg/ml) were preincubated with 1% DMSO or hit compound for 30 min at 22 °C in a solution containing 150 mM KCl, 5 mM GSH, 1 μg/ml Aprotinin/Leupeptin, 1 mM EGTA, and 65 μM or 1.02 mM CaCl2 (as determined by MaxChelator to yield 30 nM or 30 μM of free Ca^2+, respectively), 0.1 mg/ml of BSA, and 20 mM K-PIPES (pH 7.0). Nonspecific [^3H]ryanodine binding to SR was assessed by addition of 40 μM nonradioactively labeled ryanodine. Maximal [^3H]ryanodine binding was assessed by addition of 5 mM adenylyl-imidodiphosphate (AMP-PNP), and in the case of CSR, 20 mM caffeine was added. These control samples were each loaded over four wells per plate. Binding of [^3H]ryanodine (7.5 and 10 nM for CSR and HSR, respectively) was determined following a 3 h incubation at 37 °C and filtration through grade GF/B glass microfiber filters (Brandel Inc) using a Brandel Harvester. In 4 ml of Ecolite scintillation cocktail (MP biomedicals), [^3H]ryanodine retained on the filter was counted using a Beckman LS6000 scintillation counter.

RyR1 [1] = target: T2, RyR1 (Sus scrofa, UniProt P16960); experiment: [3H]ryanodine binding to skeletal SR (HSR) vesicles; type: biochemical, pig; conditions: for pEC50: EC50, [3H]ryanodine binding, skeletal HSR, Table S4
T2 construct: from tissue; host or cells: porcine longissimus dorsi muscle, heavy SR vesicles
T2 sequence (P16960 whole entry): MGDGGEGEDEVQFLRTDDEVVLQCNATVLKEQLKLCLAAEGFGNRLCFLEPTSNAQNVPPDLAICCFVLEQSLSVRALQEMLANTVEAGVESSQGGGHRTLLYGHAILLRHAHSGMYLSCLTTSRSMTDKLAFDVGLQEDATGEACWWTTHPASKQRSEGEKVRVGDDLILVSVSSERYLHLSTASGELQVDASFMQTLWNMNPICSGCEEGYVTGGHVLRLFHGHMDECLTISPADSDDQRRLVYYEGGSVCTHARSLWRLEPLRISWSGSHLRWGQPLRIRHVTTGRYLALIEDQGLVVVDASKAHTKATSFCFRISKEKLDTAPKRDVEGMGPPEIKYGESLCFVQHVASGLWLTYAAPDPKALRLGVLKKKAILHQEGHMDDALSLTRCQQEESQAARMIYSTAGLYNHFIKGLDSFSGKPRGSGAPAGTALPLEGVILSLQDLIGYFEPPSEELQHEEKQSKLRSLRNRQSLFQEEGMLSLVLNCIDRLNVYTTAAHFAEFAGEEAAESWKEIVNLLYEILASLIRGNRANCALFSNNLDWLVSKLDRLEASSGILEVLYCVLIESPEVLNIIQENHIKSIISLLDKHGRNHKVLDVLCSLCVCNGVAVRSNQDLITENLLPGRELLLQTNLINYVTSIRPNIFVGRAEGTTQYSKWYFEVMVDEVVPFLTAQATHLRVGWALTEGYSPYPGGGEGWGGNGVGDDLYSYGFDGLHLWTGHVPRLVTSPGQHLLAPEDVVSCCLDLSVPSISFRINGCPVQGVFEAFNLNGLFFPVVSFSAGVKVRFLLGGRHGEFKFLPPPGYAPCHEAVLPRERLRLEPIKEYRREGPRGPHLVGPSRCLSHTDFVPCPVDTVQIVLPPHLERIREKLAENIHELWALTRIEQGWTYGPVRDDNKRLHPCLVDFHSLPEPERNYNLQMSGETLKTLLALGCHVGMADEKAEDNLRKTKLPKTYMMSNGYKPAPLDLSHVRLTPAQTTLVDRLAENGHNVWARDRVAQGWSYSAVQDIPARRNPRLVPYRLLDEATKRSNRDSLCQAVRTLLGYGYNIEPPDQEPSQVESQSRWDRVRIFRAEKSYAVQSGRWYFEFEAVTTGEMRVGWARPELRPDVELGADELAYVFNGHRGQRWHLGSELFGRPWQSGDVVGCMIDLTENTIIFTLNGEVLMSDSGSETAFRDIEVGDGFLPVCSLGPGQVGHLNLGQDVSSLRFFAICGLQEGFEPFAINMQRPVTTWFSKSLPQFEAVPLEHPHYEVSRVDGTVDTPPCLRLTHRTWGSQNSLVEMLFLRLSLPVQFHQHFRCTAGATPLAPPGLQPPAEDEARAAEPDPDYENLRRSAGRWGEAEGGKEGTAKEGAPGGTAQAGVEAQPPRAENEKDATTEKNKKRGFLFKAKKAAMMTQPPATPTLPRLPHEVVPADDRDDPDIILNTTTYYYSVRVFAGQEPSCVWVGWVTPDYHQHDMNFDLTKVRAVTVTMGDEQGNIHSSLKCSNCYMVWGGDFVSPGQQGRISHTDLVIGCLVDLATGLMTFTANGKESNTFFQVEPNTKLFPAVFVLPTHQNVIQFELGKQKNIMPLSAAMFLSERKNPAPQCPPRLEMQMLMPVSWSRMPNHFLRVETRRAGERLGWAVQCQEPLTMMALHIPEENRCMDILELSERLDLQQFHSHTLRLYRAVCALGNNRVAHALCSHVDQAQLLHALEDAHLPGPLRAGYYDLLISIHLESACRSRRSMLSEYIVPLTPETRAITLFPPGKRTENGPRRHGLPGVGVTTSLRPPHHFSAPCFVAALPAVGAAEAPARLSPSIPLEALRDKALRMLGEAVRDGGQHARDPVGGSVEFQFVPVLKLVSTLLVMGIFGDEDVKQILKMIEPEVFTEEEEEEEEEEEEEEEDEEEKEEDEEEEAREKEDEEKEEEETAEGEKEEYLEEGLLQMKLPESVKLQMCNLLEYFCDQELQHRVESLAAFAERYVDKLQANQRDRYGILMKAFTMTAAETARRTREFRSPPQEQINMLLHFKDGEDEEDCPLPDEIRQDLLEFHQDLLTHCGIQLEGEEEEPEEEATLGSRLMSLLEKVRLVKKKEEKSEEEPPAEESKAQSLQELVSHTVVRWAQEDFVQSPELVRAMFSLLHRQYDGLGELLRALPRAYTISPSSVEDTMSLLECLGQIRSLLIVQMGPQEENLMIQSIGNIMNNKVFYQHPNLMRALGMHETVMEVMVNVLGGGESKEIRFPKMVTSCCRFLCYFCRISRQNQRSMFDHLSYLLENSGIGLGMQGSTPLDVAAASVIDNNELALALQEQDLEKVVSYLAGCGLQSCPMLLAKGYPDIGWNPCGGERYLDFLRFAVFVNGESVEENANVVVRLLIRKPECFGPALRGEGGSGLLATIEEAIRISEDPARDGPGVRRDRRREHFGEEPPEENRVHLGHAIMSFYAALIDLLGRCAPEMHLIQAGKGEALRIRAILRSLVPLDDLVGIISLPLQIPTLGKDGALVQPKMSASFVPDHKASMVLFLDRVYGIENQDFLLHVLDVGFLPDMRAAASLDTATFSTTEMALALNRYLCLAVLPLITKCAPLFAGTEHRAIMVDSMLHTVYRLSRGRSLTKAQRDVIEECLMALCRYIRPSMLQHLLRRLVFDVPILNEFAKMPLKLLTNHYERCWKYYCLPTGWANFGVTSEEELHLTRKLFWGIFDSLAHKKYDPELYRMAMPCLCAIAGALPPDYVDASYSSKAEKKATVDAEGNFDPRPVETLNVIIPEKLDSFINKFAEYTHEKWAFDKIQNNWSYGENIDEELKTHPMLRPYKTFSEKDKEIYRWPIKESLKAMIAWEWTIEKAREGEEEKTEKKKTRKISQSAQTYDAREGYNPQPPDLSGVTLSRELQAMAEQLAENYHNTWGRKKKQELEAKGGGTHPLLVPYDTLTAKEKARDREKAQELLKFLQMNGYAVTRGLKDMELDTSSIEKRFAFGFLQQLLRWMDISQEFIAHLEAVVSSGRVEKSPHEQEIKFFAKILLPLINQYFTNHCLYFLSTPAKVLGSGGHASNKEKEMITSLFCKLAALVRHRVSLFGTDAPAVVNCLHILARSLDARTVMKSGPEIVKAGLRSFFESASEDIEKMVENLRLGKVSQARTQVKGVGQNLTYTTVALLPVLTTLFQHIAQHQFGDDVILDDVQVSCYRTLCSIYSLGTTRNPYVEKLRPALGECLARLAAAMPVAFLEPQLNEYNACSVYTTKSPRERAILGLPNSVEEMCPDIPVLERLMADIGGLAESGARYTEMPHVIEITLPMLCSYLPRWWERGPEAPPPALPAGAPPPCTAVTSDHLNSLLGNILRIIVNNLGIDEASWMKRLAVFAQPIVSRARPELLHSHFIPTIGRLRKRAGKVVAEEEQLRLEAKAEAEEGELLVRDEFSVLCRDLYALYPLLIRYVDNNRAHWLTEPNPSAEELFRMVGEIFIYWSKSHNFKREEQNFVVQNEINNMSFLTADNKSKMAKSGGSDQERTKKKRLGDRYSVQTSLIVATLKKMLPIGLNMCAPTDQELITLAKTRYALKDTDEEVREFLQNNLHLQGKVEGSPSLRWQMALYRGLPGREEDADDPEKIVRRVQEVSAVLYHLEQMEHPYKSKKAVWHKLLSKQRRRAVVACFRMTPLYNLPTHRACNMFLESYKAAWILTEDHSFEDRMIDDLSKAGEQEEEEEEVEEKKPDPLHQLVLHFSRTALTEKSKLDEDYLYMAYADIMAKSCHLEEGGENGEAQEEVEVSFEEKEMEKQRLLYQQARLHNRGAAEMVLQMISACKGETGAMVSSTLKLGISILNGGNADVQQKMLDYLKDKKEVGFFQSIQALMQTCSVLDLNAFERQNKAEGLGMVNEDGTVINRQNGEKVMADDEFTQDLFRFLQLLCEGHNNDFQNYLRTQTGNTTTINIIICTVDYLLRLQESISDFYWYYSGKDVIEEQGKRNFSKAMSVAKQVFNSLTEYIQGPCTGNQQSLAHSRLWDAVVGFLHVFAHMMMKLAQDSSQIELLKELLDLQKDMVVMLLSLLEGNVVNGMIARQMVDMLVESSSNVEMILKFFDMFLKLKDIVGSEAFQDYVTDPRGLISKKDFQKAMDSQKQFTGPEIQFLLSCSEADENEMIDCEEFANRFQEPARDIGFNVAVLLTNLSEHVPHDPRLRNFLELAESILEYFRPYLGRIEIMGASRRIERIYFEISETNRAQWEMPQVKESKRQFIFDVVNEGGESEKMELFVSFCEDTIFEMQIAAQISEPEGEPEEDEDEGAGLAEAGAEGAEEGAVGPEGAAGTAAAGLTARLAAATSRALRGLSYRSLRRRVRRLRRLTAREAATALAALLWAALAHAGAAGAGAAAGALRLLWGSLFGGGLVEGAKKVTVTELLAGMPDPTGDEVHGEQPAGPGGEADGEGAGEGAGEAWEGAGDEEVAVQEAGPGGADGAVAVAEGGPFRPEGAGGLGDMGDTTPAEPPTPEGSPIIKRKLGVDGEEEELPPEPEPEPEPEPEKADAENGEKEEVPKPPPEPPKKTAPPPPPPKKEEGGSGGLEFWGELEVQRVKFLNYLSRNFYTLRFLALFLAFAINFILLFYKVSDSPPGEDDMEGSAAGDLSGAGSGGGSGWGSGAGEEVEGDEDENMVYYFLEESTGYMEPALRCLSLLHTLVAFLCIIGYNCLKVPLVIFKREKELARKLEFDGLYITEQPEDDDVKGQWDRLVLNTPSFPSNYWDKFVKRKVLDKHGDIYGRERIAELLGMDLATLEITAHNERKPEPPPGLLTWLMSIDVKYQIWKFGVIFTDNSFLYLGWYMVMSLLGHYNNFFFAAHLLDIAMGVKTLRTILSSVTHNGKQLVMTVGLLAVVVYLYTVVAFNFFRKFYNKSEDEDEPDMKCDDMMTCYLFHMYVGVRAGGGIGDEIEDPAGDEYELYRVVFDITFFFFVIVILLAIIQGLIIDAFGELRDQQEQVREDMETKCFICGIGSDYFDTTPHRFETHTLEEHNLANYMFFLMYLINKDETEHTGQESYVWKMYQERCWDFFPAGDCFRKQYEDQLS
Procedure: as §1, §2

α2-adrenergic receptors = system: α2-adrenergic receptors; design: method as in PMID 7969082; conditions: cited from earlier work
mouse RyR2 NTR = target: T3, mouse RyR2 NTR (Mus musculus, UniProt E9Q401, K30C/K441C, form not given); experiment: FLT-FRET dose-response with AC-NTR biosensor; type: binding
T3 sequence (E9Q401 1-547 K30C/K441C): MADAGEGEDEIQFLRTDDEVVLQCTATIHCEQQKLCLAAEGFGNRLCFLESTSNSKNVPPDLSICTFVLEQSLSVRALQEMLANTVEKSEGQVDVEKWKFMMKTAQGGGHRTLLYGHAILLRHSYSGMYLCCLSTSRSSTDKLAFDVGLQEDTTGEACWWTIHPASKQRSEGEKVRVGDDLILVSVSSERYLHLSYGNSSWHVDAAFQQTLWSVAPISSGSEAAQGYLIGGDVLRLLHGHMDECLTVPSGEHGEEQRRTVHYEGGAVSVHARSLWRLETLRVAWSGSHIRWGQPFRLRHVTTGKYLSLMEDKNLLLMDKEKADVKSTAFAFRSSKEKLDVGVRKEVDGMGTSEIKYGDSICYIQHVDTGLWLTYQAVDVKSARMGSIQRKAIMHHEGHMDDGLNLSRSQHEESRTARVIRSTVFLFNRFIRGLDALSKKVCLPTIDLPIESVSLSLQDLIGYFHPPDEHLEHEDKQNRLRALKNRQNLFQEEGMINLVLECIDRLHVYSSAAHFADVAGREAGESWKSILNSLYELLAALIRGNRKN
Description: The NTR of mouse RyR2 (residues 1–547) was cloned and expressed as previously described ([27]). The DNA construct contains a 6×His tag, a maltose-binding protein (MBP) tag, and a tobacco etch virus (TEV) protease cleavage site. The seven native solvent-exposed cysteine residues were substituted with alanine residues, and two constructs were engineered with Cys substitutions at surface residues R383 and K441 (in the B and C domains, respectively; termed BC) and at K30 and K441 (in the A and C domains, respectively; termed AC) for labeling with spectroscopic probes such as appropriate donor–acceptor fluorophores for FRET (for the purpose of this report, these are considered the WT forms of AC and BC). A variant of the BC construct corresponding to the disease-associated mutant (R420Q) was also prepared. For this site-directed mutagenesis work, we used the QuikChange (Stratagene) and Phusion High-Fidelity PCR (Thermo Fisher Scientific) kits. The WT-NTR, R420Q-NTR, AC- and BC-NTR, AC- and BC-R420Q-NTR protein constructs were expressed in Escherichia coli Rosetta (DE3) pLacI cells at 18 °C and purified with a protocol adapted from previously published work ([26]). An amylose column was first applied after the cells were lysed by ultrasonication. The protein in the elution was then cleaved using TEV protease. The cleaved crude protein went through the second amylose column to separate from the MBP and then followed by a Superdex S-200 size exclusion column in a buffer consisting of 250 mM KCl, 10 mM HEPES, and 14 mM β-mercaptoethanol (pH 7.4). The NTR protein (3 μM) was then incubated in 10 mM HEPES, 250 mM KCl (pH 7.4, 2 h, 21 °C) with the fluorescent probes Alexa Fluor 488 maleimide (AF488, donor; 40 μM) and Alexa Fluor 568 maleimide (AF568, acceptor; 60 μM). The maleimide of the dye reacts with the thiols the Cys residues engineered into NTR, forming a covalently labeled protein. The Alexa dyes were added last to the reaction mixture, from 10 mM DMSO stock solutions. This reaction is not selective to one site (K30C or K441C), and we anticipate that there is a mixed population with K30C or K441C labeled with either AF488 (donor) or AF568 (acceptor). We focused on maximizing the fraction containing donor–acceptor pairs, thus maximizing FRET efficiency and the precision for detecting a change in structure as an indication that a compound interacts with the NTR biosensor. The labeling efficiency was determined by comparing the molar concentration of the bound dye, determined from UV-Vis absorbance, to the protein concentration, determined from gel densitometry. Essentially complete labeling was confirmed from electrospray ionization mass spectrometry. CD spectra of the WT-NTR and mutant R420Q-NTR constructs before and after labeling were recorded using a JASCO J-815 CD spectrometer (JASCO), confirming similar folding (Fig. S1).
The 1536-well assay plates were prepared as described in our previous reports ([21]). The LOPAC (Sigma-Aldrich) collection received in 96-well plates was reformatted into 384-well polypropylene intermediate plates (Greiner Bio-One) using a multichannel liquid handler, BioMek FX (Beckman Coulter), then transferred to 384-well Echo Qualified source plates (Labcyte Inc). Assay plates were prepared as previously described ([20]). On screening days, these plates were thawed out and were loaded with labeled NTR (5 μl, 20 nM final concentration) using a Multidrop Combi automated sample dispenser.
HTS measurements were conducted in a prototype top-read FLT plate reader (FLT-PR, Fluorescence Innovations, Inc), which reads each 1536-well plate in ∼3 min ([63], [64]). AF488 donor fluorescence was excited with a 473 nm microchip laser from Concepts Research Corporation, and the emission signal was split into two channels by a dichroic mirror and acquired with 517 ± 10 nm (channel 1) and 535 ± 7 nm band-pass filters (channel 2) (Semrock). […]

[2] = system: rat skeletal muscle fibers; experiment: Electrically evoked Ca2+ transients in skinned skeletal muscle fibers; type: cell-based; conditions: 10 μM FA or 1 mM tetracaine, 1 Hz
Description: Mechanically skinned fibers were isolated, mounted in a custom chamber, and bathed in a resting physiological solution containing rhod-2, as previously described ([21]). The Ca^2+-sensitive dye rhod-2 was used to track cytosolic Ca^2+ transients when exposed to electrical stimulation. Field pulses at 1 Hz frequency and 4 ms in duration were applied across platinum electrodes parallel to the long axis of the fiber. Imaging for electrical stimulation experiments was in xt mode, at a rate of 2 ms.line^−1. DMSO vehicle (0.01%), FA (10 μM), and tetracaine were added to the physiological solution. Each treatment was applied precisely at the seventh successive Ca^2+ transient.

RyR1 [3] = target: T4, RyR1 (Rattus norvegicus, UniProt F1LMY4); experiment: t-tubule Ca2+ measurement of RyR1 leak in skinned skeletal muscle fibers; type: cell-based; conditions: 10 μM FA or 1 mM tetracaine, [Ca2+]cyto 200 nM
T4 construct: from tissue; host or cells: Wistar rat extensor digitorum longus (EDL), mechanically skinned single fibres
Procedure: All experimental methods using rodents were approved by the Animal Ethics Committees at The University of Queensland and were performed in accordance with the relevant guidelines and regulations. Five-month-old Wistar rats (UQ Biological Resources) were euthanized by asphyxiation via CO2 exposure, and the extensor digitorum longus (EDL) was rapidly excised. Once dissected, muscles were pinned to Sylgard set in a Petri dish containing paraffin oil.
Bundles of fibers were isolated and exposed to an internal solution containing rhod-5N, as described previously ([47]). After 15 min incubation, single skeletal muscle fibers were mechanically skinned and mounted in a custom-made chamber. […] For tracking Ca^2+ movements across the t-system membrane, images were continuously recorded in xyt mode with an aspect ratio of 256 × 512, with the long aspect of the image parallel with that of the preparation. Temporal resolution of imaging in this mode where the fluorescence signal was within the borders of the fiber was 0.8 s.
T-system rhod-5N fluorescence was converted to [Ca^2+]t-sys as previously described ([47]). To determine the effect of RyR modulators on the RyR Ca^2+ leak, isolated mechanically skinned fibers were continuously imaged as described above, to obtain a record of t-system rhod-5N fluorescence changes over time as the cytoplasmic solution bathing the fiber was changed. […]

| SMILES | pEC50 (RyR2) | effect on [3H]ryanodine binding to RyR2 (RyR2; cardiac SR, 30 μM Ca2+) | pEC50 (RyR1 [1]; [Ca2+] 30 nM) | pEC50 (RyR1 [1]; [Ca2+], 30 µM) | maximum inhibitory effect on [3H]ryanodine binding (RyR1 [1]; skeletal SR, 30 nM Ca2+) [%] | effect on [3H]ryanodine binding to RyR1 (RyR1 [1]; skeletal SR, 30 μM Ca2+) | binding affinity for α2-adrenergic receptors (α2-adrenergic receptors) | ΔFLT (mouse RyR2 NTR; AC-NTR biosensor, 0 to 100 μM, CPNQ/corbadrine decrease FLT, FA/tacrolimus increase FLT) | EC50 relative to CPNQ (fold higher) (mouse RyR2 NTR; FRET dose-response) [fold] | pEC50 (mouse RyR2 NTR; read-out: EC50, FRET dose-response, AC-NTR biosensor, Hill fit, Table S4) | electrically induced Ca2+ transient amplitude [2] | steady-state [Ca2+]t-sys (RyR1 leak) (RyR1 [3]) |
| --- | --- | --- | --- | --- | --- | --- | --- | --- | --- | --- | --- | --- |
| C[C@H](N)[C@H](O)c1ccc(O)c(O)c1 [corbadrine, 4-[(1R,2S)-2-amino-1-hydroxypropyl]benzene-1,2-diol] | 8.00 | slight activation at high concentrations | 7.70 | 4.82 | ~70 | strongly increased | very high binding affinity | ≈ 0.35 ns | ~3 | 5.44 | – | – |
| CCCCNc1ccc(C(=O)OCCN(C)C)cc1 [tetracaine] | – | – | – | – | – | – | – | – | – | – | significantly decreased | full RyR inhibition |
